# According to article PMC12592400, “A unique inhibitor conformation selectively targets the DNA polymerase PolC of Gram-positive priority pathogens” (Nature Communications, 2025):
# “And” between values parts separate entries of the source, which are not always exact repeats. Identical values can stand only once.
# Molecular target: T1, E. faecium PolC^F1276S (exonuclease-inactivated) (Enterococcus faecium, UniProt A0A9X4B319, D429A/E431A/F1274S)
# T1 sequence (A0A9X4B319 1-1450 D429A/E431A/F1274S): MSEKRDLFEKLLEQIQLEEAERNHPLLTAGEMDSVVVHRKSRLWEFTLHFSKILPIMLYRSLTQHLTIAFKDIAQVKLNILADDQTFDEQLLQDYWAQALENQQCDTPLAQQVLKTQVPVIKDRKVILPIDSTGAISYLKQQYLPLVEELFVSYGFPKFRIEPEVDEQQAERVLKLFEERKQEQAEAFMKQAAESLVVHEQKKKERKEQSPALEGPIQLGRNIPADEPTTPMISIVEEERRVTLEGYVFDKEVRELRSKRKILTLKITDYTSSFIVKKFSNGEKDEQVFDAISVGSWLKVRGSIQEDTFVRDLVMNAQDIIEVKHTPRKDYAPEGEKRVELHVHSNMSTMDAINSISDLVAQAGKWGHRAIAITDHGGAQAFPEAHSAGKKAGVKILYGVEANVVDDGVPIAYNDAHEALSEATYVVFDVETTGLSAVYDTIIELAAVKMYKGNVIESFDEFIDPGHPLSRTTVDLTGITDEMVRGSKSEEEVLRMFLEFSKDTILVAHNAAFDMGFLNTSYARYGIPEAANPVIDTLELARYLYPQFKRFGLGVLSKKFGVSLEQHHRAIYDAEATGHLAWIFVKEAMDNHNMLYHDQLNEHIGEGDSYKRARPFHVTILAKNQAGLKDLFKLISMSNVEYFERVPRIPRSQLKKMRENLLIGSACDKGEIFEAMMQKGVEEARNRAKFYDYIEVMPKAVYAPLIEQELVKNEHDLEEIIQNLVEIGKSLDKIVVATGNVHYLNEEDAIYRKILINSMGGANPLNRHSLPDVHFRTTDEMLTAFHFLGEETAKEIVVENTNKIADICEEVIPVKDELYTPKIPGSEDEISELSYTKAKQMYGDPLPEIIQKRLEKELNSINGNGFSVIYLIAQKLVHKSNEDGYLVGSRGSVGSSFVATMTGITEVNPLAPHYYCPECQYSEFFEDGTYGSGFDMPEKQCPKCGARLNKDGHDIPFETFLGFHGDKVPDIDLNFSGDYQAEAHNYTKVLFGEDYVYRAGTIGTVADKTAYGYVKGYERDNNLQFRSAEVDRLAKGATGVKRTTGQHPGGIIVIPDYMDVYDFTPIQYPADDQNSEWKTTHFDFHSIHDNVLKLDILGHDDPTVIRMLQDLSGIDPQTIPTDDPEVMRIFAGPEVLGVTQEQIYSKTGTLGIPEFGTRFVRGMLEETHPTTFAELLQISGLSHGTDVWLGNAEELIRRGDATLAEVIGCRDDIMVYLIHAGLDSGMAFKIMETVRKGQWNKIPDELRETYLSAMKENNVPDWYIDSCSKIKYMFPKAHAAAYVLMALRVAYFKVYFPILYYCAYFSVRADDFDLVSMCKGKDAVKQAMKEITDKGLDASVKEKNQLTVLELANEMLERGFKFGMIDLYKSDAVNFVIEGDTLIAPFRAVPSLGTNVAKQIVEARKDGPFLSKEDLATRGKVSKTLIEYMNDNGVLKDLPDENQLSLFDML
# Assay: Real-time DNA primer extension assay
# Assay type: biochemical
# Details: for rate of activity (slope of fluorescence intensity change over time): Fig. 4b source data, F1267S
# Description: The genes for PolC (locus_tag: MIBBHLJO_01574) and DnaE (locus_tag: MIBBHLJO_00911) from E. faecium ATCC 700221 were codon-optimized for expression in E. coli and synthesized in vector pET28b by Twist Bioscience (San Francisco, CA). Expression constructs for variant PolC proteins were created with QuikChange Site-Directed Mutagenesis (Agilent) with oligonucleotides listed in Supplementary Table 3. F1276L, F1276S, and A1281T were introduced to assess the effect of these mutations on inhibition by ACX compounds. Mutations D972A and D974A were introduced to inactivate the polymerase activity and mutations D431A and E433A were introduced to inactivate the exonuclease activity (Fig. 1d, Supplementary Fig. 1).
# Polymerase activity was monitored in real-time[31],[32] with a 42-nt long 5’ carboxyfluorescein-labelled DNA oligonucleotide template strand (DNASP8_42) annealed to a 30-nt primer oligonucleotide (oMU014). Polymerase activity in this assay is monitored by measuring fluorescence quenching of the labelled DNA template as a result of primer extension by PolC (for details see Supplementary Fig. 1b, c). Both primers were HPLC purified. Primer extension assays were performed in Reaction Buffer (see Gel-based polymerase and exonuclease assays) supplemented with 0.5 mg/mL BSA, 0.05% Tween20 and 25 uM of each dNTP (SRB) in 384-well Black Round Bottom plates (Corning 4514). The polymerase was diluted in the SRB and incubated for at least 5 min in the presence of inhibitor or solvent, with a final solvent concentration of 1%. The reaction was initiated by the addition of an equal volume of DNA substrate in SRB as described below. Fluorescence emission data was collected with a BMG Labtech PHERAstar FSX reader for 30 min at room temperature.
# Compounds were dispensed with an Echo acoustic liquid handler (Beckman Coulter). All compounds were dissolved to 1 mM and 10 mM stocks in 100% DMSO and transferred to Echo LDV or PP source plates (Labcyte, Inc., CA), then dispensed to 384-well plates with a Labcyte Echo550 or Echo650 acoustic dispenser at volumes of 2.5 to 100 nL per well. […] A Mantis microfluidic liquid dispenser (Formulatrix) was used to dispense 5 µL polymerase and 5 µL substrate DNA (individually diluted in SRB) per well. […] The final concentration of DNA was 70 nM.
# Data were analysed and standard error of the means (SEM) determined in Prism 8.4.2 and 10.2.3 (GraphPad). Raw time-course polymerase activity was plotted against time, with SEM of triplicates determined. The rate of activity (represented by signal quenching) was determined during the first 8 min (linear stage) by calculating the slope of fluorescence intensity change (converted to a positive value) over time (in seconds). The slopes were then normalized to percentage activity (%); per ‘replicate range’, 100% activity was defined as polymerase activity in the absence of inhibitor (polymerase control), and 0% activity was determined in the absence of polymerase (DNA signal; negative control). The SEM was determined between ‘replicate ranges’. The IC50 was determined using the dose-response (inhibition) nonlinear regression ‘[Inhibitor] vs. response (three parameters)’ without constraints.
Compound,IC50 [µM],rate of activity (slope of fluorescence intensity change over time) (inhibitor 1 uM),rate of activity (slope of fluorescence intensity change over time) (inhibitor 1.75 uM),rate of activity (slope of fluorescence intensity change over time) (inhibitor 2.5 uM),rate of activity (slope of fluorescence intensity change over time) (inhibitor 4 uM),rate of activity (slope of fluorescence intensity change over time) (inhibitor 5.75 uM),rate of activity (slope of fluorescence intensity change over time) (inhibitor 8.8 uM),rate of activity (slope of fluorescence intensity change over time) (inhibitor 20 uM),rate of activity (slope of fluorescence intensity change over time) (inhibitor 30 uM),rate of activity (slope of fluorescence intensity change over time) (inhibitor 45 uM),rate of activity (slope of fluorescence intensity change over time) (inhibitor 67.5 uM),rate of activity (slope of fluorescence intensity change over time) (inhibitor 100 uM),rate of activity (slope of fluorescence intensity change over time) (inhibitor 225 uM),rate of activity (slope of fluorescence intensity change over time) (inhibitor 150 uM)
"O=c1[nH]c(NCc2ccc3c(c2)OC(F)(F)O3)nc2c(F)nn(CCO)c12 [ACX-801, 5-(((2,2-difluorobenzo[d][1,3]dioxol-5-yl)methyl)amino)-3-fluoro-1-(2-hydroxyethyl)-1,6-dihydro-7H-pyrazolo[4,3-d]pyrimidin-7-one]",101 ± 8.8,29.5 and 29.8 and 30.7,30.8 and 30.2 and 30.4,31.6 and 32.7 and 27.4,31.4 and 30.5 and 33.1,30.4 and 30.7 and 31.4,31.4 and 31.3 and 30.8,28.6 and 27.8,22.8 and 24.4 and 24.1,18.0 and 19.1,14.6 and 12.2,10.5 and 12.0 and 13.4,6.1 and 6.2 and 5.0,–
"O=c1[nH]c(NCc2ccc(Cl)c(Cl)c2)nc2ncn(CCN3CCOCC3)c12 [IBZ, N^2-(3,4-dichlorobenzyl)-7-(2-[1-morpholinyl]ethyl)guanine]",> 225,29.0 and 29.8 and 31.7,30.0 and 28.9 and 29.5,26.9 and 26.5 and 27.3,31.2 and 29.8 and 29.5,28.2,25.6 and 30.1 and 32.4,30.9 and 27.1 and 31.2,29.0 and 27.4,31.6 and 29.8 and 28.0,29.0 and 32.1 and 30.5,28.6 and 28.2,28.0 and 22.8,27.2 and 24.9 and 25.9
